Measurements taken from article PMC9227250, “Design, Synthesis and Cytotoxic Activity Evaluation of Newly Synthesized Amides-Based TMP Moiety as Potential Anticancer Agents over HepG2 Cells” (Molecules, 2022).
Each block holds one compound with its values, some of them ahead of it.

Tests used:
pan HDAC = test system: pan HDAC; parameters: method as in doi:10.1039/D0NJ01274B; conditions: read-out: pan HDAC inhibitory activity IC50; cited from earlier work
HepG2 cells [1] = assay: MTT cytotoxicity assay against HepG2 cell line; assay type: cell-based; conditions: Homo sapiens, mean of three independent replicates ± SE
Procedure: (§1) Cytotoxic activity was carried out using MTT colorimetric antiproliferative assay to investigate the effect of the prepared molecules on HepG2 as well as HL-7702 cell lines. See Section 4.3.1 in Supplementary Data.
(§2) 4.3.1. Cytotoxic activity evaluation
(§3) To measure the cytotoxic actvity of the amide derivatives 2-6e in hepatocellular carcinoma (HepG2) cell line (ATCC Cat No. HB-8065) as well as normal human liver cell line HL-7702 (ATCC Cat. No. 77402), cell viability assay was assessed using MTT assay method. Cells at density of 1 x 104 were seeded in a 96-well plate at 37 °C for 24 h under 5% CO2. After incubation, the cells were treated with different concentrations of the test schiff bases 2-6e and incubated for 24 h, then 20 µl of MTT solution at 5 mg/mL was applied and incubated for 4 h at 37 °C . Dimethyl sulphoxide (DMSO) in volume of 100 µl was added to each well to dissolve the purple formazan that had formed. The color intensity of the formazan product, which represents the growth condition of the cells, is quantified by using an ELISA plate reader (EXL 800, USA) at 450 nm absorbance. The experimental conditions were carried out with at least three replicates, and the experiments were repeated at least three times. […]

HL-7702 cells = assay: MTT cytotoxicity assay against normal liver cell line HL-7702; assay type: cell-based, human; conditions: for IC50: Homo sapiens, L02, MTT assay, normal liver cell line HL-7702, mean of three independent replicates ± SE
Procedure: as §1, §2, §3

HDAC1 [2] = target: T1, HDAC1 (Homo sapiens, UniProt Q13547); assay: In vitro HDAC1 inhibition assay (ELISA kit); assay type: biochemical; conditions: HepG2 cells exposed 72 h
T1 construct: Briefly, HepG2 cells were trypsinized, counted and seeded; host or cells: HepG2
T1 sequence (Q13547 whole entry): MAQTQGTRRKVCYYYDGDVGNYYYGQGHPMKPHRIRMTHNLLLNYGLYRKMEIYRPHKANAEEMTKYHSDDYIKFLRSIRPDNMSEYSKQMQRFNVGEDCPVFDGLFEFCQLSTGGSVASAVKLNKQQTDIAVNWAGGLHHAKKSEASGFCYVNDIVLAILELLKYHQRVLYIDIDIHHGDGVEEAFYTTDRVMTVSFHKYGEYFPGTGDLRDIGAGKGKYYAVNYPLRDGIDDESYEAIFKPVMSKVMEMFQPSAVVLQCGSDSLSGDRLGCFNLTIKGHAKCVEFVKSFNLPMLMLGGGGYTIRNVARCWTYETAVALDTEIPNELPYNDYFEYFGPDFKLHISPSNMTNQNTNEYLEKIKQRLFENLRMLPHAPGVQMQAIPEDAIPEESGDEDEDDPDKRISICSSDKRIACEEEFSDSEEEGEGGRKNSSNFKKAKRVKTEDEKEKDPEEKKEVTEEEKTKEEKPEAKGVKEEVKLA
Procedure: (§4) See Section 4.3.2 in Supplementary Data.
(§5) 4.3.1. Cytotoxic activity evaluation […]
(§6) for 24 h under 5% CO2. After incubation, the cells were treated with different concentrations of the test schiff bases 2-6e and incubated for 24 h, then 20 µl of MTT […]
(§7) (DMSO) in volume of 100 µl was added to each well to dissolve the purple formazan that had formed. The color intensity of the formazan product, which represents the […]
(§8) USA) at 450 nm absorbance. The experimental conditions were carried out with at least three replicates, and the experiments were repeated at least three times.
(§9) 4.3.2. In vitro HDAC inhibition assay
(§10) HDAC isoforms (HDAC1, 2) were measured using ELISA assay kits {Mybiosource, Inc. [#MBS2020012 and #MBS2510971]} according to manufacturer's directions.
(§11) 96-well micro titer plates. Cells then were incubated in a humidified atmosphere at 37 °C for 24 h. The standards, the tested compounds, and the positive reference SAHA were diluted to designated concentrations. On the 96-well micro titer plates standard or sample was added to each well in 100 µL, and incubated at 37 °C for 2 h. The solution was aspirated and 100 µL of prepared. Detection Reagent A was added to […]
4.3.3. […]
(§12) The samples were immediately analyzed using Facs Calibur flow cytometer (Becton and Dickinson, Heidelberg, Germany). […]
(§13) immediately analyzed using FACS Calibur flow cytometer (Becton and Dickinson, […]

HDAC2 = target: T2, HDAC2 (Homo sapiens, UniProt Q92769); assay: In vitro HDAC2 inhibition assay (ELISA kit); assay type: biochemical; conditions: HepG2 cells exposed 72 h
T2 construct: Briefly, HepG2 cells were trypsinized, counted and seeded; host or cells: HepG2
T2 sequence (Q92769 whole entry): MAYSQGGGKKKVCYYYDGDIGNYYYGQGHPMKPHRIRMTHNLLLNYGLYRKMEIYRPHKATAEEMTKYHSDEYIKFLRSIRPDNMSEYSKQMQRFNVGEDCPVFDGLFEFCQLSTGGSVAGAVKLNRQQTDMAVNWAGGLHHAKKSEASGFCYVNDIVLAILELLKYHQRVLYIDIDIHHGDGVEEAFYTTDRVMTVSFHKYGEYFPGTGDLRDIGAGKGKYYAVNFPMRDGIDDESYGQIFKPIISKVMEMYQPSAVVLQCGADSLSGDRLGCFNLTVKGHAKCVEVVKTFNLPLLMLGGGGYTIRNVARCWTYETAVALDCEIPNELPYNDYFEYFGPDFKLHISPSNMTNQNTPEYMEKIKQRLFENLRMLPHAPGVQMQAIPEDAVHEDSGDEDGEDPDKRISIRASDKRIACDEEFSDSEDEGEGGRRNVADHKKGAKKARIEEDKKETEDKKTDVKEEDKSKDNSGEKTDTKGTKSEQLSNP
Procedure: as §4, §5, §6, §7, §8, §9, §10, §11
4.3.3. […]
as §12, §13

β-tubulin = target: T3, β-tubulin (Homo sapiens, UniProt P07437+P68363); assay: Tubulin polymerization inhibition assay (Human Beta-tubulin ELISA kit); assay type: biochemical; conditions: for tubulin polymerization percentage inhibition: ELISA for β-tubulin, compared with untreated control cells
T3 construct: […]
T3 sequence (P07437 whole entry): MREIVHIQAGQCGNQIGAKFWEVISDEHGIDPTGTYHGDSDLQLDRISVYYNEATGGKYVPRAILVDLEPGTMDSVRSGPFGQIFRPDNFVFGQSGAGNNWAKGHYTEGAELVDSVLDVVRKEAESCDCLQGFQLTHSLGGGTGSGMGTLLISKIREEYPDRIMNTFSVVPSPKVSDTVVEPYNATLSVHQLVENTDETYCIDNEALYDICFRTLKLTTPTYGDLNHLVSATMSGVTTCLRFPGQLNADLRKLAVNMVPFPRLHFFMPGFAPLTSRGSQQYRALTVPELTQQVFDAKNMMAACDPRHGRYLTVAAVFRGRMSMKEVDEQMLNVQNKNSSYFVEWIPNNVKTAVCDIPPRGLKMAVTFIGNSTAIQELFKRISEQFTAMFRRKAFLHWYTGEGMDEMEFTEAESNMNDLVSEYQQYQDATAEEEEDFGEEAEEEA
T3 sequence (P68363 whole entry): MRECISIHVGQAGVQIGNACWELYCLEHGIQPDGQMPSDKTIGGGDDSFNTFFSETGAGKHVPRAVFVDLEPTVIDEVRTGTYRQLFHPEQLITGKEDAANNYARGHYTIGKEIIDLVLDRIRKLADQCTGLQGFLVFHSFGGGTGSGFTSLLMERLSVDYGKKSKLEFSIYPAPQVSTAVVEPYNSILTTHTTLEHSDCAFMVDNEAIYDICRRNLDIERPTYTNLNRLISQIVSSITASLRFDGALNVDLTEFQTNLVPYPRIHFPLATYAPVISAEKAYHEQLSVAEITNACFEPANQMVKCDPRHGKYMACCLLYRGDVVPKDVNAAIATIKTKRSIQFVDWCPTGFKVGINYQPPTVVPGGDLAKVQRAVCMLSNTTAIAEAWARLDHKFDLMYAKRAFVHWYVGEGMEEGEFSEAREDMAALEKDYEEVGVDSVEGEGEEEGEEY
Procedure: See Section 4.3.3 in Supplementary Data.
4.3.3. Tubulin inhibitions Assay […]
manufacturer’s instructions using # abcam Human Beta-tubulin simplestep ELISA Kit […]
Cell cycle analysis in HepG2 cells was investigated using fluorescent Annexin V - FITC/ PI detection kit (BioVision EZCellTM Cell Cycle Analysis Kit Catalog #K920) […]
After treatment, cells were washed twice in PBS, fixed in 70% ethanol, rinsed again with PBS. Cells were collected by centrifugation at 2000 rpm for 5 min and stained with DNA […]
The samples were immediately analyzed using Facs Calibur flow cytometer (Becton and Dickinson, Heidelberg, Germany).
Apoptosis in HepG2 cells was investigated using fluorescent Annexin V-FITC/ PI detection kit (BioVision Annexin V-FITC Apoptosis Detection Kit, Catalog #: K101) […]
as §13
Caspase 3/7 in HepG2 cells was investigated using CellEvent® Caspase 3/7 Green Detection Flow Cytometry Assay Kit. Caspase 3/7 activity in HepG2 cell line was […]
CellEvent® caspase 3/7 green detection flow cytometry assay kit according to manufacturer’s directions. […]
harvested and washed with ice cold PBS, and cell lysates were prepared and […]

HepG2 cells [3] = assay: Cell cycle analysis by flow cytometry (PI); assay type: cell-based, human; conditions: HepG2, IC50 dose, 48 h; untreated control 7.28%
Source text: Inhibition of tubulin assembly into microtubule and the antiproliferative effects are characterized by cell cycle arrest in the G2/M phase. […] The results in this study indicate that the newly prepared tetraamide derivative 6a cause cell cycle perturbation in the G2/M phase which is the main gauge of HDAC and tubulin inhibitors confirming the mode of action under study.
Cell cycle analysis in HepG2 cells was investigated using fluorescent Annexin V-FITC/ PI detection kit (BioVision EZCell^TM Cell Cycle Analysis Kit Catalog #K920) by flow cytometry assay. See Section 4.3.4 in Supplementary Data. […]
(§14) concentration that induces 50% of maximum inhibition of HDAC isoforms (IC50) […]
(§15) 4.3.3. Tubulin inhibitions Assay
(§16) Compound 6a was evaluated for its tubulin inhibitory activity according to manufacturer’s instructions using # abcam Human Beta-tubulin simplestep ELISA Kit […]
(§17) 4.3.4. Cell cycle analysis of compound 6a
Cell cycle analysis in HepG2 cells was investigated using fluorescent Annexin V - FITC/ PI detection kit (BioVision EZCellTM Cell Cycle Analysis Kit Catalog #K920) by flow cytometry assay. HepG2 cells at a density of 2 × 10^5 per well were treated with compound 6a at its IC50 concentration for 48 h. […] The samples were immediately analyzed using Facs Calibur flow cytometer (Becton and Dickinson, Heidelberg, Germany). […]

HepG2 cells [4] = assay: Annexin V-FITC/PI apoptosis assay; assay type: cell-based, human; conditions: HepG2, IC50 concentration, 48 h
Procedure: G2/M blockade is often followed by cellular apoptosis. To quantify the percentage of cellular apoptosis induced by compound 6a in HepG2 cells, Annexin V fluorescein isothiocyanate versus propidium iodide (PI) dual staining analysis was performed after treatment with compound 6a at its IC50 concentration for 48 h. The results were presented graphically in Figure 5. […] Therefore, it can be concluded that compound 6a can be considered as apoptotic inducer.
Apoptosis in HepG2 cells was investigated using fluorescent Annexin V-FITC/ PI detection kit (BioVision Annexin V-FITC Apoptosis Detection Kit, Catalog #: K101) by flow cytometry assay. See Section 4.3.5 in Supplementary Data. […]
as §14, §15, §16, §17
Cell cycle analysis in HepG2 cells was investigated using fluorescent Annexin V - FITC/ PI detection kit (BioVision EZCellTM Cell Cycle Analysis Kit Catalog #K920) by flow cytometry assay. HepG2 cells at a density of 2 × 10^5 per well were treated with compound 6a at its IC50 concentration for 48 h. After treatment, cells were washed twice in PBS, fixed in 70% ethanol, rinsed again with PBS. Cells were collected by centrifugation at 2000 rpm for 5 min and stained with DNA fluorochrome PI for 15 min at 37 °C in dark. The samples were immediately analyzed using Facs Calibur flow cytometer (Becton and Dickinson, Heidelberg, Germany).
4.3.5. Apoptosis assay for compound 6a […]
Caspase 3/7 in HepG2 cells was investigated using CellEvent® Caspase 3/7 Green Detection Flow Cytometry Assay Kit. Caspase 3/7 activity in HepG2 cell line was detected in the presence of compounds 6a at its IC50 concentration (µM) using CellEvent® caspase 3/7 green detection flow cytometry assay kit according to manufacturer’s directions. […]

HDAC1 [5] = conditions: cited from earlier work

SMILES: Cc1ccc(/C=N/NC(=O)c2ccc(NC(=O)c3cccnc3)cc2)cc1 [IV]
IC50 (pan HDAC): 4.65 µM

melting point: 215 to 217 °C
SMILES: COc1cc(C(=O)NC(=Cc2ccc(N(C)C)cc2)C(=O)NNC(=O)/C(=C/c2ccco2)NC(=O)c2cc(OC)c(OC)c(OC)c2)cc(OC)c1OC [Compound 6c, N-((1Z)-3-(2-(3-(4-(dimethylamino)phenyl)-2-(3,4,5-trimethoxybenzamido)acryloyl)hydrazinyl)-1-(furan-2-yl)-3-oxoprop-1-en-2-yl)-3,4,5-trimethoxybenzamide]
IC50 (HepG2 cells [1]): 1.12 ± 0.12 µM | IC50 (HL-7702 cells): 9.88 ± 0.14 µM

melting point: 223 to 225 °C
SMILES: COc1cc(C(=O)NC(=Cc2ccc(C#N)cc2)C(=O)NNC(=O)/C(=C/c2ccco2)NC(=O)c2cc(OC)c(OC)c(OC)c2)cc(OC)c1OC [Compound 6b, N-((1Z)-3-(2-(3-(4-cyanophenyl)-2-(3,4,5-trimethoxybenzamido)acryloyl)hydrazinyl)-1-(furan-2-yl)-3-oxoprop-1-en-2-yl)-3,4,5-trimethoxybenzamide]
IC50 (HepG2 cells [1]): 0.92 ± 0.1 µM | IC50 (HL-7702 cells): 11.1 ± 0.18 µM

SMILES: Nc1ccccc1NC(=O)c1cnccn1 [BG45]
IC50 (pan HDAC): 5.51 µM

IC50 (HDAC1 [2]): 0.047 µM | IC50 (HDAC2): 0.086 µM | tubulin polymerization percentage inhibition (β-tubulin): 66.39% | IC50 (β-tubulin; β-tubulin ELISA): 0.27 µM | melting point: 209 to 211 °C
SMILES: COc1cc(C(=O)NC(=Cc2ccc(Cl)cc2)C(=O)NNC(=O)/C(=C/c2ccco2)NC(=O)c2cc(OC)c(OC)c(OC)c2)cc(OC)c1OC [Compound 6a, N-((1Z)-3-(2-(3-(4-chlorophenyl)-2-(3,4,5-trimethoxybenzamido)acryloyl)hydrazinyl)-1-(furan-2-yl)-3-oxoprop-1-en-2-yl)-3,4,5-trimethoxybenzamide]
IC50 (HepG2 cells [1]): 0.65 ± 0.03 µM | selectivity ratio toward normal liver cell line (HL-7702 cells; HL-7702 (printed HL-7022) versus HepG2): 14.8 | IC50 (HL-7702 cells): 9.62 ± 0.23 µM | cells in G2/M phase (HepG2 cells [3]): 39.09% | late apoptotic cell percentage (HepG2 cells [4]; untreated control 0.13%): 12.08% | early apoptotic cell percentage (HepG2 cells [4]; untreated control 0.52%): 23.41% | total apoptosis percentage (HepG2 cells [4]; untreated control 1.59%): 37.51%

SMILES: Nc1ccccc1NC(=O)c1ccc(C(C(=O)Nc2ccccc2)C(=O)Nc2ccccc2)cc1 [III]
fold potency for HDAC1 compared with HDAC2 (HDAC1 [5]): 10 fold | fold potency for HDAC1 compared with HDAC3 (HDAC1 [5]): 20 fold

SMILES: COc1ccc(/C=C\c2cc(OC)c(OC)c(OC)c2)cc1O [CA-4, combretastatin A-4, reference compound]
IC50 (HepG2 cells [1]): 0.54 ± 0.04 µM | IC50 (HL-7702 cells): 8.86 ± 0.67 µM | tubulin polymerization percentage inhibition (β-tubulin): 88.72%
